Each structure is given as a SMILES string. Activity calls are given as the source filed them. No cut-off for these calls is given here.

Here are results for 17 compounds from ChEMBL document CHEMBL3044808, “Laboratory and field comparisons of insecticides to reduce infestation of Drosophila suzukii in berry crops” (2011).

In assay [1] the test system is Drosophila suzukii. The assay is described as follows: Insecticidal activity against Drosophila suzukii assessed as male mortality at 2.3 g/ha by direct application at 22 degC measured after 24 hr. Format: functional, organism-based.
Assay [2] has as its system Drosophila suzukii. The assay is described as follows: Insecticidal activity against Drosophila suzukii assessed as male mortality at 112.3 g/ha by direct application at 22 degC measured after 24 hr. It counts as functional, organism-based.
For assay [3], the system named is Drosophila suzukii. The assay is described as follows: Insecticidal activity against Drosophila suzukii assessed as male mortality at 3.31 g/ha by direct application at 22 degC measured after 24 hr. It counts as functional, organism-based.
For assay [4], the system named is Drosophila suzukii. Nature of the assay: Insecticidal activity against Drosophila suzukii assessed as male mortality at 41 g/ha by direct application at 22 degC measured after 24 hr. It counts as functional, organism-based.
Assay [5] has as its system Drosophila suzukii. The assay is described as follows: Insecticidal activity against Drosophila suzukii assessed as mortality at 2.3 g/ha by direct application at 22 degC measured after 24 hr. It counts as functional.
In assay [6] the test system is Drosophila suzukii. Nature of the assay: Insecticidal activity against Drosophila suzukii assessed as mortality at 212.5 g/ha by direct application at 22 degC measured after 24 hr. Format: functional, organism-based.
In assay [7] the test system is Drosophila suzukii. Nature of the assay: Insecticidal activity against Drosophila suzukii assessed as mortality at 112.1 g/ha by direct application at 22 degC measured after 24 hr. It counts as functional.
In assay [8] the test system is Drosophila suzukii. The assay is described as follows: Insecticidal activity against Drosophila suzukii assessed as mortality at 112.2 g/ha by direct application at 22 degC measured after 24 hr. It counts as functional.
The subject of assay [9] is Drosophila suzukii. Nature of the assay: Insecticidal activity against Drosophila suzukii assessed as mortality at 24 g/ha by direct application at 22 degC measured after 24 hr. Format: functional.
Assay [10] deals with Drosophila suzukii. The assay is described as follows: Insecticidal activity against Drosophila suzukii assessed as mortality at 1 g/ha by direct application at 22 degC measured after 24 hr. It counts as functional.
Assay [11] has as its system Drosophila suzukii. The assay is described as follows: Insecticidal activity against Drosophila suzukii assessed as mortality at 113.8 g/ha by direct application at 22 degC measured after 24 hr. It counts as functional, organism-based.
Assay [12] relates to Drosophila suzukii. The assay is described as follows: Insecticidal activity against Drosophila suzukii assessed as mortality at 41 g/ha by direct application at 22 degC measured after 24 hr. Format: functional, organism-based.
For assay [13], the system named is Drosophila suzukii. The assay is described as follows: Insecticidal activity against Drosophila suzukii assessed as mortality at 112.3 g/ha by direct application at 22 degC measured after 24 hr. Format: functional, organism-based.
Assay [14] relates to Drosophila suzukii. The assay is described as follows: Insecticidal activity against Drosophila suzukii assessed as mortality at 62.3 g/ha by direct application at 22 degC measured after 24 hr. It counts as functional.
Assay [15] deals with Drosophila suzukii. The assay is described as follows: Insecticidal activity against Drosophila suzukii assessed as mortality at 341.5 g/ha by direct application at 22 degC measured after 24 hr. Format: functional.
Assay [16] deals with Drosophila suzukii. Nature of the assay: Insecticidal activity against Drosophila suzukii assessed as mortality at 1.1 g/ha by direct application at 22 degC measured after 24 hr. It counts as functional.
Assay [17] has as its system Drosophila suzukii. Nature of the assay: Insecticidal activity against Drosophila suzukii assessed as mortality at 70.2 g/ha by direct application at 22 degC measured after 24 hr. It counts as functional, organism-based.
In assay [18] the test system is Drosophila suzukii. The assay is described as follows: Insecticidal activity against Drosophila suzukii assessed as mortality at 223.9 g/ha by direct application at 22 degC measured after 24 hr. It counts as functional.
Assay [19] has as its system Drosophila suzukii. Nature of the assay: Insecticidal activity against Drosophila suzukii assessed as mortality at 3.31 g/ha by direct application at 22 degC measured after 24 hr. It counts as functional, organism-based.
Assay [20] concerns Drosophila suzukii. The assay is described as follows: Insecticidal activity against Drosophila suzukii assessed as mortality at 2.2 g/ha by direct application at 22 degC measured after 24 hr. Format: functional.
The test system of assay [21] is Drosophila suzukii. The assay is described as follows: Insecticidal activity against Drosophila suzukii assessed as mortality at 56.2 g/ha by direct application at 22 degC measured after 24 hr. It counts as functional.

In general, mortality refers to the share of the test organisms that died. In the case of `CNC(=O)Oc1cccc2ccccc12` [CARBARIL], the result in assay [1], in [2], in assay [3] and in assay [4] was Active. In addition, in assay [5], the mortality at 2.3 g/ha is 100%.

As for `O=C(NC(=O)c1c(F)cccc1F)Nc1ccc(OC(F)(F)C(F)OC(F)(F)F)c(Cl)c1` (stereo not drawn), in [6], the outcome was Active.

In the case of `Cc1c(COC(=O)[C@@H]2[C@H](/C=C(\Cl)C(F)(F)F)C2(C)C)cccc1-c1ccccc1` (relative stereo) [BIFENTHRIN], the mortality at 112.1 g/ha in assay [7] is 100%. Besides, in [8], the mortality at 112.2 g/ha was 100%.

`CC1(C)C(C=C(Cl)Cl)C1C(=O)OC(C#N)c1ccc(F)c(Oc2ccccc2)c1` (stereo not drawn) [CYFLUTHRIN]: in assay [9], the mortality at 24 g/ha was found to be 100%.

`CNC(=O)ON=C(C)SC` [METHOMYL]: the mortality at 1 g/ha in assay [10] worked out at 100%.

For the compound `CNC(=O)c1cc(Cl)cc(C)c1NC(=O)c1cc(Br)nn1-c1ncccc1Cl`, the result in [11], in assay [1], in [2], in [3] and in assay [4] was Active.

Take `C/C=C(\C)C(=O)O[C@H]1C[C@@H](OC(C)=O)[C@@]2(C(=O)OC)CO[C@H]3[C@@H](O)[C@@](C)([C@]45O[C@@]4(C)[C@@H]4C[C@H]5O[C@@H]5OC=C[C@@]54O)[C@H]4[C@]1(CO[C@]4(O)C(=O)OC)[C@@H]32`: the outcome in assay [1], in assay [2], in [3], in [12] and in [4] was Active.

As for `C/C(=N\C#N)N(C)Cc1ccc(Cl)nc1`, the result in [1], in [13], in assay [2], in assay [3] and in assay [4] was Active.

In the case of `C=CCC1=C(C)C(OC(=O)C2C(C=C(C)C)C2(C)C)CC1=O` (stereo not drawn) [Allethrin], the mortality at 62.3 g/ha in assay [14] came out at 79%.

Consider `CC1(C)C(C(=O)OC(C#N)c2cccc(Oc3ccccc3)c2)C1(C)C` (stereo not drawn) [FENPROPATHRIN], for which the mortality at 341.5 g/ha in [15] worked out at 100%.

For the compound `O=S1OCC2C(CO1)C1(Cl)C(Cl)=C(Cl)C2(Cl)C1(Cl)Cl` (stereo not drawn), the result in assay [16] was Active.

Turning to `CN1COCN(Cc2cnc(Cl)s2)/C1=N\[N+](=O)[O-]`, the result in assay [1], in [2], in assay [3], in assay [17] and in assay [4] was Active.

`CC1(C)C(C=C(Cl)Cl)C1C(=O)OCc1cccc(Oc2ccccc2)c1` (stereo not drawn) [PERMETHRIN]: the mortality at 223.9 g/ha in [18] is 100%.

With `CC[C@H](C)[C@H]1O[C@]2(C=C[C@@H]1C)C[C@@H]1C[C@@H](C/C=C(\C)[C@@H](O[C@H]3C[C@H](OC)[C@@H](O[C@H]4C[C@H](OC)[C@@H](O)[C@H](C)O4)[C@H](C)O3)[C@@H](C)/C=C/C=C3\CO[C@@H]4[C@H](O)C(C)=C[C@@H](C(=O)O1)[C@]34O)O2.CO[C@H]1C[C@H](O[C@H]2[C@H](C)O[C@@H](O[C@@H]3/C(C)=C/C[C@@H]4C[C@@H](C[C@]5(C=C[C@H](C)[C@@H](C(C)C)O5)O4)OC(=O)[C@@H]4C=C(C)[C@@H](O)[C@H]5OC/C(=C\C=C\[C@@H]3C)[C@]54O)C[C@@H]2OC)O[C@@H](C)[C@@H]1O`, the result in assay [1], in assay [19], in assay [2], in [3] and in assay [4] was Active.

In the case of `CCOC(=O)CC(SP(=S)(OC)OC)C(=O)OCC` (stereo not drawn) [MALATHION], in [20], the mortality at 2.2 g/ha is 100%. For the same compound, the mortality at 2.3 g/ha in assay [5] came to 100%.

In the case of `CC(C)[C@H](C(=O)O[C@H](C#N)c1cccc(Oc2ccccc2)c1)c1ccc(Cl)cc1`, the mortality at 56.2 g/ha in assay [21] worked out at 100%.

In the case of `CCOP(=S)(OCC)Oc1cc(C)nc(C(C)C)n1` [DIMPYLATE], the mortality at 1.1 g/ha in assay [16] came out at 100%.
